Results from article PMC7436000, “The Spectrum of Design Solutions for Improving the Activity-Selectivity Product of Peptide Antibiotics against Multidrug-Resistant Bacteria and Prostate Cancer PC-3 Cells” (Molecules, 2020).
In brackets after ≈: the same amount, converted by molar mass. Read-outs that look alike come from different tables or passages of the source. Peptide text beside a SMILES is read from it.

Experiments:
E. coli clin. isolate = type: cell-based, Escherichia coli
Excerpt: (§1) The American Type Culture Collection (ATCC, Rockville, MD, USA) strains and Escherichia coli MG1655 were used as standard bacterial strains. Gram-negative ATCC strains consisted of Escherichia coli (ATCC 25922), Pseudomonas aeruginosa (ATCC 27853), Acinetobacter baumannii (ATCC 19606), and Klebsiella pneumoniae (ATCC 13883). The only Gram-positive standard strain chosen for testing was Staphylococcus aureus (ATCC 29213). Clinical isolates with confirmed multidrug-resistance phenotype were obtained from different wards of the University Hospital Center, Split, Croatia. We described their origin, antibiograms, and resistance phenotype previously. In the same paper, we described the procedure for antimicrobial susceptibility testing on planktonic cells, using the microdilution method in 96-well microtiter plates.
(§2) Briefly, cells were grown on agar plates and a single colony was sampled to generate a liquid culture (LC) grown overnight at 37 °C. The culture was sampled, resuspended in fresh medium, and allowed to grow at 37 °C, until reaching the mid-exponential phase. Lysogeny broth (LB) was used in the case of the E. coli MG1655 cells. Mueller Hinton (MH) medium was used for all other bacterial strains. Serial 2-fold dilutions of the peptide (64 μM to 0.0625 μM) were prepared from peptide stock solution in PBS, and added to a final load of 5 × 10^5 CFU/mL in 100 μL total volume of medium per well in a 96-well plate (Brand 781660). Bacterial cultures were incubated with peptides for 18 h to 24 h at 37 °C. The minimum inhibitory concentration (MIC) was defined as the lowest concentration of the peptide, at which no visible bacterial growth was observed. The MIC for each of the tested peptides was determined in at least three individual assays under the same laboratory conditions. […] At the end of the incubation period for MIC or MBC, the determination of the OD600 was analyzed.

P. aerug. clin. isolate = type: cell-based, Pseudomonas aeruginosa
Excerpt: as §1, §2

K. pneum. clin. isolate = type: cell-based, Klebsiella pneumoniae
Excerpt: as §1, §2

[1] = system: Acinetobacter baumannii (ATCC 19606); type: cell-based
Excerpt: as §1, §2

[2] = system: Escherichia coli (ATCC 25922); type: cell-based
Excerpt: as §1, §2

Escherichia coli MG1655 = type: cell-based
Excerpt: as §1, §2

[3] = system: Klebsiella pneumoniae (ATCC 13883); type: cell-based
Excerpt: as §1, §2

[4] = system: Pseudomonas aeruginosa (ATCC 27853); type: cell-based
Excerpt: as §1, §2

[5] = system: Staphylococcus aureus (ATCC 29213); type: cell-based
Excerpt: as §1, §2

A. baum. clin. isolate = type: cell-based, Acinetobacter baumannii
Excerpt: as §1, §2

S. aureus clin. isolate = type: cell-based, Staphylococcus aureus
Excerpt: as §1, §2

human erythrocytes = test: Hemolysis of human erythrocytes; type: cell-based; conditions: 0.5% RBC in PBS, 1 h, 37 °C, absorbance 450 nm, triplicate; for HC10: concentration causing 10% hemolysis, 0.2% Triton = 100%; for HC20: concentration causing 20% hemolysis; for HC50: concentration causing 50% hemolysis
Procedure: Fresh blood was obtained from a healthy donor. Blood was stored in a tube containing EDTA at 4 °C and used within 24 h. Before use, 1 mL of blood was centrifuged (400× g, 10 min), and the supernatant was discarded. Moreover, 500 μL cold PBS with EDTA (1 mM) was added, mixed and centrifuged. The supernatant was discarded. Furthermore, 500 μL of cold PBS with EDTA (1 mM) was added, from which a dilution of 1% blood was made. Peptides were prepared in PBS at a 2 × concentration in 100 µL. […] The suspension was incubated at 37 °C for 1 h and centrifuged at 10,000× g for 5 min. […] After centrifugation, the supernatant was added to a 96-well microtiter plate (150–180 μL), and the absorbance was measured at 450 nm, using EnSight Multimode Plate Reader (PerkinElmer, Inc.). Each measurement was done in triplicate. […] We opted to also include the extrapolated HC50 in our results, to permit comparisons with older toxicity results. However, the HC20 measurements were used for ranking the peptides according to their selectivity and overall performance (Figure 1 and Figure 2 and Table 2).

[6] = system: human primary dermal fibroblasts; type: cell-based
Procedure: (§3) Prostate cancer cells were donated by the University of Split, School of Medicine. Cells were cultured in RMPI-1640 medium, supplemented with 10% FBS, 1% Penicillin-Streptomycin, and 1% L-Glutamine. Human dermal fibroblasts were purchased from Biopredic (France) and cultured in DMEM medium, supplemented with 10% FBS and 1% Penicillin-Streptomycin. All cell lines were maintained in a humidified incubator with 5% CO2 at 37 °C. Cells were detached using the trypsin-EDTA solution and sub-cultured (7000 cells/well) in a 96-well plate overnight. Peptide stock solutions were prepared in PBS, and cancer cells were treated with 2-fold serial dilutions for 24 h at 37 °C, with 5% CO2. The toxicity of 6 selected peptides was assessed by a standard MTT assay. Treated cells were incubated with MTT working solution (0.5 mg/mL Thiazolyl Blue Tetrazolium Bromide) for 4 h at 37 °C with 5% CO2. Precipitated formazan was dissolved in 200 µL DMSO and absorbance was measured at 595 nm with EnSight Multimode Plate Reader (PerkinElmer, Inc.)

[7] = system: PC-3 prostate cancer cell line; type: cell-based, human
Procedure: as §3

[8] = multidrug-resistant clinical isolate, broth microdilution, MH medium, 18-24 h, 37 °C
[9] = broth microdilution, MH medium, 5 × 10^5 CFU/mL, 18-24 h, 37 °C
[10] = broth microdilution, LB medium, 5 × 10^5 CFU/mL, 18-24 h, 37 °C, at least three assays
[11] = MTT assay, 7000 cells/well, 24 h treatment, 37 °C, 5% CO2, absorbance 595 nm, read-out: IC50F (Fibroblasts)
[12] = MTT assay, 7000 cells/well, 24 h treatment, 37 °C, 5% CO2, absorbance 595 nm, read-out: IC50C (PC-3)
[13] = performance, product of TI and anticancer activity (1/IC50C)
[14] = relative performance with respect to MP1 control peptide
[15] = therapeutic index, fibroblasts vs PC-3

Row | SMILES | MIC (E. coli MG1655) (Escherichia coli MG1655; [10]) | HC10 (human erythrocytes) | HC20 (human erythrocytes) | HC50 (human erythrocytes) | IC50 [6, 11] | IC50 [7, 12] | TI (HC20/IC20C) ([7]; human erythrocytes vs PC-3) | TI/ IC50C [7, 13] | (TI/ IC50C) vs. MP1 [7, 14] | TI (IC50F/IC50C) [7, 15] | MIC (E. coli clin. isolate) (E. coli clin. isolate; clin. isolate) | MIC (P. aerug. clin. isolate) (P. aerug. clin. isolate) | MIC (K. pneum. clin. isolate) (K. pneum. clin. isolate) | MIC (A. baum. ATCC 19606) ([1]; ATCC 19606) | MIC (E. coli ATCC 25922) ([2]; ATCC 25922) | MIC (E. coli MG1655) (Escherichia coli MG1655; MG1655) | MIC (K. pneum. ATCC 13883) ([3]; ATCC 13883) | MIC (P. aerug. ATCC 27853) ([4]; ATCC 27853) | MIC (S. aureus ATCC 29213) ([5]; ATCC 29213) | MIC (A. baum. clin. isolate) (A. baum. clin. isolate) | other results
1 | CC[C@H](C)[C@H](NC(=O)[C@H](CCCCN)NC(=O)[C@H](CCCCN)NC(=O)CNC(=O)[C@@H](NC(=O)[C@@H](N)CCCCN)[C@@H](C)CC)C(=O)N[C@@H](CC(C)C)C(=O)N[C@@H](CCCCN)C(=O)N[C@@H](C)C(=O)N[C@@H](CC(C)C)C(=O)N[C@@H](CCCCN)C(=O)NCC(=O)N[C@@H](C)C(=O)N[C@@H](CC(C)C)C(=O)N[C@@H](CCCCN)C(=O)N[C@@H](CCC(=O)O)C(=O)N[C@@H](CC(C)C)C(=O)N[C@@H](C)C(N)=O [MAPA] (H-KIGKKILKALKGALKELA-NH2) | 4 µM (≈ 7.69 µg/mL) | 1.7 µM | 3 µM | 20 µM | 25 µM | 8 µM | 1 | 0.39 | 9.3 | 3.1 | – | – | – | – | – | – | – | – | – | – | MIC (E. coli clin. isolate) (E. coli clin. isolate; multidrug-resistant clinical isolate, broth microdilution, MH medium, 5 × 10^5 CFU/mL, 18-24 h, 37 °C): 8 to 16 µM; MIC (P. aerug. clin. isolate) (P. aerug. clin. isolate; [8]): 32 µM (≈ 61.5 µg/mL); MIC (K. pneum. clin. isolate) (K. pneum. clin. isolate; [8]): 8 µM (≈ 15.4 µg/mL); MIC (A. baum. ATCC 19606) [1, 9]: 1 to 2 µM; MIC (E. coli ATCC 25922) ([2]; broth microdilution, MH medium, 5 × 10^5 CFU/mL, 18-24 h, 37 °C, at least three assays): 1 to 2 µM; MIC (K. pneum. ATCC 13883) [3, 9]: 8 µM (≈ 15.4 µg/mL); MIC (P. aerug. ATCC 27853) [4, 9]: 32 to 64 µM; MIC (S. aureus ATCC 29213) [5, 9]: 0.5 µM (≈ 0.961 µg/mL); PEa(20) = SI/MIC(aureus) ([5]; overall performance, product of SI (20) and 1/MIC, S. aureus ATCC 29213): 12 µM⁻¹; MIC (A. baum. clin. isolate) (A. baum. clin. isolate; [8]): 4 µM (≈ 7.69 µg/mL); MIC (S. aureus clin. isolate) (S. aureus clin. isolate; [8]): 8 µM (≈ 15.4 µg/mL)
2 | CC[C@H](C)[C@H](NC(=O)[C@H](CCCCN)NC(=O)[C@H](CC(C)C)NC(=O)[C@H](C)NC(=O)[C@H](CCCCN)NC(=O)[C@H](CC(C)C)NC(=O)[C@H](C)NC(=O)[C@@H](NC(=O)[C@H](CCCCN)NC(=O)[C@H](C)NC(=O)[C@@H](NC(=O)[C@@H](N)CCCCN)[C@@H](C)CC)C(C)C)C(=O)N[C@@H](C)C(=O)N[C@@H](CCCCN)C(=O)N[C@H](C(=O)N[C@@H](C)C(=O)N[C@@H](CC(C)C)C(=O)N[C@@H](CCCCN)C(=O)N[C@@H](C)C(=O)N[C@@H](CC(C)C)C(N)=O)C(C)C [PG2] (H-KIAKVALKALKIAKVALKAL-NH2) | – | 3 µM | 14 µM | 18 µM | – | – | – | – | – | – | 6 µM (≈ 12.5 µg/mL) | 6 µM (≈ 12.5 µg/mL) | 12 µM (≈ 25.1 µg/mL) | 1.5 µM (≈ 3.13 µg/mL) | 1.5 µM (≈ 3.13 µg/mL) | 16 µM (≈ 33.4 µg/mL) | 3 µM (≈ 6.27 µg/mL) | 6 µM (≈ 12.5 µg/mL) | 0.75 µM (≈ 1.57 µg/mL) | 1.5 to 3 µM | MIC (S. aureus clin. isolate) (S. aureus clin. isolate; clin. isolate): 1.5 µM (≈ 3.13 µg/mL); IC50 ([6]; 24 h): 10 µM; (TI/ IC50C) vs. MP1 ([7]; 24 h): 6.8; IC50 ([7]; 24 h): 6 µM; TI (HC20/IC20C) ([7]; 24 h): 6; TI (IC50F/IC50C) ([7]; 24 h): 1.7; TI/ IC50C ([7]; 24 h): 0.28
3 | CC[C@H](C)[C@H](NC(=O)[C@@H](NC(=O)[C@H](CCCNC(=N)N)NC(=O)CNC(=O)[C@@H](NC(=O)[C@H](CCCCN)NC(=O)[C@H](CCCCN)NC(=O)CNC(=O)[C@@H](NC(=O)[C@H](CCCCN)NC(=O)[C@H](CCCCN)NC(=O)[C@@H](NC(=O)[C@@H](NC(=O)[C@H](CCCCN)NC(=O)[C@H](CCCCN)NC(=O)[C@@H](NC(=O)[C@@H](NC(=O)[C@H](CCC(=O)O)NC(=O)[C@H](CCCNC(=N)N)NC(=O)CNC(=O)[C@@H](NC(=O)CN)[C@@H](C)CC)[C@@H](C)CC)[C@@H](C)CC)[C@@H](C)CC)[C@@H](C)CC)[C@@H](C)CC)[C@@H](C)CC)[C@@H](C)CC)C(N)=O [ZYK1] (H-GIGREIIKKIIKKIGKKIGRII-NH2) | – | 3 µM | 8 µM | 29 µM | – | – | – | – | – | – | 2 µM (≈ 4.95 µg/mL) | 16 µM (≈ 39.6 µg/mL) | 4 µM (≈ 9.9 µg/mL) | 2 µM (≈ 4.95 µg/mL) | 1 µM (≈ 2.47 µg/mL) | 4 µM (≈ 9.9 µg/mL) | 2 µM (≈ 4.95 µg/mL) | 16 µM (≈ 39.6 µg/mL) | 1 µM (≈ 2.47 µg/mL) | 2 µM (≈ 4.95 µg/mL) | PEa(20) = SI/MIC(aureus) ([5]; ATCC 29213, 18 h): 8 µM⁻¹; MIC (S. aureus clin. isolate) (S. aureus clin. isolate; clin. isolate): 2 µM (≈ 4.95 µg/mL); IC50 ([6]; 24 h): 10 µM; (TI/ IC50C) vs. MP1 ([7]; 24 h): 107; IC50 ([7]; 24 h): 1.5 µM; TI (HC20/IC20C) ([7]; 24 h): 8.6; TI (IC50F/IC50C) ([7]; 24 h): 6.7; TI/ IC50C ([7]; 24 h): 4.47
4 | CC[C@H](C)[C@H](N)C(=O)N[C@@H](CC(=O)O)C(=O)N[C@@H](Cc1c[nH]c2ccccc12)C(=O)N[C@@H](CCCCN)C(=O)N[C@@H](CCCCN)C(=O)N[C@@H](CC(C)C)C(=O)N[C@@H](CC(C)C)C(=O)N[C@@H](CC(=O)O)C(=O)N[C@@H](C)C(=O)N[C@@H](C)C(=O)N[C@@H](CCCCN)C(=O)N[C@@H](CCC(N)=O)C(=O)N[C@H](C(=O)N[C@@H](CC(C)C)C(N)=O)[C@@H](C)CC [MP1, reference compound] (H-IDWKKLLDAAKQIL-NH2) | >32 µM | 20 µM | 37 µM | 170 µM | 150 µM | 60 µM | 1 | 0.04 | 1.0 | 2.5 | – | – | – | – | – | – | – | – | – | – | –
